Among the data in ChEMBL document CHEMBL5120925, “Antagonistic Effect and In Vitro Activity of Dauricine on Glucagon Receptor” (J Nat Prod, 2022) are Activity and IC50 values, retold here.

For data set [1], the target named is Glucagon receptor (Homo sapiens) (UniProt P47871). Description: Antagonist activity at […] (unknown origin) expressed in HEK293 cells assessed as inhibition of GCG binding by measuring increase in fluorescence intensity at 0.1 mM incubated for 30 to 40 mins by FLUO-4 AM based inverted fluorescence microscopic imaging analysis. The conditions noted are these: filed as antagonist, time 30-40 min. Format: functional, cell-based.

A short description of data set [2]: Cytotoxicity against HEK293 cells assessed as inhibition of cell growth incubated for 24 hrs by MTT assay. In kind it is toxicity, cell-based. The conditions noted are these: human. On the technique in general: Tetrazolium assays rely on reduction of a dye to a coloured formazan, in cell work by metabolically active cells.
Data set [3] addresses Glucagon receptor (Homo sapiens) (UniProt P47871). Description: Antagonist activity at GCGR (unknown origin) expressed in HEK293 cells assessed as inhibition of GCG binding by measuring increase in fluorescence intensity at 10 uM incubated for 30 to 40 mins by FLUO-4 AM fluorescence based flow cytometric analysis. In kind it is functional, cell-based. The conditions noted are these: filed as antagonist, time 30-40 min.

Calls of active or inactive are those of the source. The rule behind the calls is not given here.

Glucagon receptor (Homo sapiens), sequence (P47871 whole entry): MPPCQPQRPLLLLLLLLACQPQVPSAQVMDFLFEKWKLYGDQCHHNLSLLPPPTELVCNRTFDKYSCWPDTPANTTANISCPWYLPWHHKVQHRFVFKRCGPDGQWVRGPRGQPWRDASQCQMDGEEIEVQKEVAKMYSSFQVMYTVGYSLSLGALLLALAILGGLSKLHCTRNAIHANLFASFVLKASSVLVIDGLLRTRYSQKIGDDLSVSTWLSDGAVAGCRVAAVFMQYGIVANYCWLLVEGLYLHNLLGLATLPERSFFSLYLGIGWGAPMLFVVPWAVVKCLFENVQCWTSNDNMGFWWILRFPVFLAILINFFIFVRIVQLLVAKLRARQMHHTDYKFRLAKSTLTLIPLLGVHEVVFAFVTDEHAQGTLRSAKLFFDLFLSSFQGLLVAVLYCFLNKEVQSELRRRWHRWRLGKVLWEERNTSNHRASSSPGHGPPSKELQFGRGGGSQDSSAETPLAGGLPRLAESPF

Regarding H-SQGTFTSEYSKYLDSRRAQDFVQWL-NH2, in data set [1], the result was Active.
As a reminder, the IC50 is the midpoint of a concentration-inhibition curve. Regarding `COc1cc2c(cc1OC)[C@@H](Cc1ccc(Oc3cc(C[C@H]4c5cc(OC)c(OC)cc5CCN4C)ccc3O)cc1)N(C)CC2`, in data set [2], the IC50 at 24 h worked out at 10.6 µM. Moreover, the result in data set [3] was Active.
